Experimental findings from US8445501B2, “Substituted 7-carboxamido-pyrrolo[3,2-d]pyrimidines” (Takeda GmbH, priority 2008, dated 2013) are described below.

In general, IC50 refers to the point on the concentration scale where inhibition reaches its midpoint. Read a high IC50 as weaker potency in that assay.

The target in this assay is T1, human PDE5 (Homo sapiens, UniProt O76074).
T1 construct: from tissue; host or cells: platelets from fresh blood of human donors (lysate, 10,000 g supernatant)
Nature of the assay: Inhibition of the type 5 phosphodiesterase (PDE5) activity, modified SPA test with platelet lysate. The conditions noted are these: PDE5 from human platelet lysate, 0.5 μM cGMP. The class given is biochemical. The procedure, abridged: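 Human platelet lysate (10,000 g supernatant) as PDE5 source in SPA with 0.5 μM cGMP plus [3H]cGMP tracer, pH 7.4, 5 mM Mg2+, 1 μM motapizone and 10 nM PDE2 inhibitor; 10–20% conversion. 5 min preincubation, 15 min at 37 °C, stopped with SPA beads/IBMX. IC50 by non-linear regression.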
As for `COc1ccc(-c2ncnc3c(C(=O)N[C@H]4CC[C@H](C(=O)NC5CC5)CC4)c[nH]c23)c(OCC2CC2)c1` [Example 271, trans-4-(2-Cyclopropylmethoxy-4-methoxy-phenyl)-5H-pyrrolo[3,2-d]pyrimidine-7-carboxylic acid (4-cyclopropylcarbamoyl-cyclohexyl)-amide], the IC50 was 0.55 nM.

In turn, `COCCNC(=O)[C@H]1CC[C@H](NC(=O)c2c[nH]c3c(-c4ccc(OC)cc4OCC4CC4)ncnc23)CC1` [Example 272, trans-4-(2-Cyclopropylmethoxy-4-methoxy-phenyl)-5H-pyrrolo[3,2-d]pyrimidine-7-carboxylic acid [4-(2-methoxy-ethylcarbamoyl)-cyclohexyl]-amide] had an IC50 of 0.708 nM.

`O=C(N[C@H]1CC[C@H](C(=O)NC2CC2)CC1)c1c[nH]c2c(-c3cc(F)ccc3OCC3CC3)ncnc12` [Example 273, trans-4-(2-Cyclopropylmethoxy-5-fluoro-phenyl)-5H-pyrrolo[3,2-d]pyrimidine-7-carboxylic acid (4-cyclopropylcarbamoyl-cyclohexyl)-amide] had an IC50 of 2.19 nM.

`COCCNC(=O)[C@H]1CC[C@H](NC(=O)c2c[nH]c3c(-c4cc(F)ccc4OCC4CC4)ncnc23)CC1` [Example 274, trans-4-(2-Cyclopropylmethoxy-5-fluoro-phenyl)-5H-pyrrolo[3,2-d]pyrimidine-7-carboxylic acid [4-(2-methoxy-ethylcarbamoyl)-cyclohexyl]-amide] gave an IC50 of 5.25 nM.

Consider `COCCNC(=O)[C@H]1CC[C@H](NC(=O)c2c[nH]c3c(-c4c(OCC5CCC5)ccc5c4OCO5)ncnc23)CC1` [Example 275, trans-4-(5-Cyclobutylmethoxy-benzo[1,3]dioxol-4-yl)-5H-pyrrolo[3,2-d]pyrimidine-7-carboxylic acid [4-(2-methoxy-ethylcarbamoyl)-cyclohexyl]-amide], for which the midpoint of inhibition, the IC50, lay at 0.347 nM.

Take `O=C(N[C@H]1CC[C@H](C(=O)NC2CC2)CC1)c1c[nH]c2c(-c3c(OCC4CCC4)ccc4c3OCO4)ncnc12` [Example 276, trans-4-(5-Cyclobutylmethoxy-benzo[1,3]dioxol-4-yl)-5H-pyrrolo[3,2-d]pyrimidine-7-carboxylic acid (4-cyclopropylcarbamoyl-cyclohexyl)-amide]: the IC50 was 0.166 nM.

For the compound `CC(=O)N1CCC(NC(=O)c2c[nH]c3c(-c4cc(F)c(O)cc4OCC4CC4)ncnc23)CC1` [Example 277, 4-(2-Cyclopropylmethoxy-5-fluoro-4-hydroxy-phenyl)-5H-pyrrolo[3,2-d]pyrimidine-7-carboxylic acid (1-acetyl-piperidin-4-yl)-amide], half-maximal inhibition (IC50) was put at 93.3 nM.

`CCC(=O)N1CCC(NC(=O)c2c[nH]c3c(-c4cc(F)c(O)cc4OCC4CC4)ncnc23)CC1` [Example 278, 4-(2-Cyclopropylmethoxy-5-fluoro-4-hydroxy-phenyl)-5H-pyrrolo[3,2-d]pyrimidine-7-carboxylic acid (1-propionyl-piperidin-4-yl)-amide] gave an IC50 of 57.5 nM.

`CC(=O)N1CCC(NC(=O)c2c[nH]c3c(-c4cc(F)c(OC(F)F)cc4OCC4CC4)ncnc23)CC1` [Example 279, 4-[2-Cyclopropylmethoxy-4-(1,1-difluoro-methoxy)-5-fluoro-phenyl]-5H-pyrrolo[3,2-d]pyrimidine-7-carboxylic acid (1-acetyl-piperidin-4-yl)-amide] gave an IC50 of 2.34 nM.

In turn, `COCC(=O)N1CCC(NC(=O)c2c[nH]c3c(-c4cc(F)c(OC(F)F)cc4OCC4CC4)ncnc23)CC1` [Example 280, 4-[2-Cyclopropylmethoxy-4-(1,1-difluoro-methoxy)-5-fluoro-phenyl]-5H-pyrrolo[3,2-d]pyrimidine-7-carboxylic acid [1-(2-methoxy-ethanoyl)-piperidin-4-yl]amide] showed an IC50 of 1.74 nM.

For the compound `O=C(NC1CCN(C(=O)CO)CC1)c1c[nH]c2c(-c3cc(F)c(O)cc3OCC3CC3)ncnc12` [Example 281, 4-(2-Cyclopropylmethoxy-5-fluoro-4-hydroxy-phenyl)-5H-pyrrolo[3,2-d]pyrimidine-7-carboxylic acid [1-(2-hydroxy-acetyl)piperidin-4-yl]-amide], inhibition was half-maximal at 851 nM (IC50).

For the compound `C[C@H](O)C(=O)N1CCC(NC(=O)c2c[nH]c3c(-c4cc(F)c(O)cc4OCC4CC4)ncnc23)CC1` [Example 282, 4-(2-Cyclopropylmethoxy-5-fluoro-4-hydroxy-phenyl)-5H-pyrrolo[3,2-d]pyrimidine-7-carboxylic acid [1-((S)-2-hydroxy-propionyl)piperidin-4-yl]-amide], the IC50 is 251 nM.

Take `O=C(NC1CCN(C(=O)CO)CC1)c1c[nH]c2c(-c3cc(F)c(OC(F)F)cc3OCC3CC3)ncnc12` [Example 283, 4-[2-Cyclopropylmethoxy-4-(1,1-difluoro-methoxy)-5-fluoro-phenyl]-5H-pyrrolo[3,2-d]pyrimidine-7-carboxylic acid [1-(2-hydroxy-acetyl)piperidin-4-yl]-amide]: the IC50 is 5.13 nM.

`C[C@H](O)C(=O)N1CCC(NC(=O)c2c[nH]c3c(-c4cc(F)c(OC(F)F)cc4OCC4CC4)ncnc23)CC1` [Example 284, 4-[2-Cyclopropylmethoxy-4-(1,1-difluoro-methoxy)-5-fluoro-phenyl]-5H-pyrrolo[3,2-d]pyrimidine-7-carboxylic acid [1-((S)-2-hydroxy-propionyl)-piperidin-4-yl]-amide] gave a 50% inhibitory concentration (IC50) of 2.88 nM.

Take “trans-4-(2-Cyclopropylmethoxy-4-fluoro-phenyl)-5H-pyrrolo[3,2-d]pyrimidine-7-carboxylic acid [4-((S)-2-hydroxy-propionylamino)-cyclohexyl]-amide [Example 223]”: the “-log IC50 (mol/l)” value was found to be 8.46.
